According to patent US20100242341A1, “CORROSION AND MICROBIAL CONTROL IN HYDROCARBONACEOUS COMPOSITIONS” (priority 2007, published 2010):

Key:
Format in all cases: cell-based
[1] = test system: Hormoconis resinae ATCC# 20495; assay: Microbial resistance of fuel, plate count
Procedure: (§1) Bacteria. Pseudomonas aeruginosa ATCC# 33988, Yeast: Yarrowia tropicalis ATCC# 48138, and Mold: Hormoconis resinae ATCC# 20495, are sub cultured in Bushnell-Haas broth, and used for the mixed inoculum. The organism concentrations in the mixed inoculum are as follows: Ps. aeruginosa-4.8×10^8 cfu/mL; Y. tropicalis-2.2×10^7 cfu/mL; H. resinae-6.3×10^7 cfu/mL
(§2) Testing is carried out in glass bottles with bakelite screw tops for four weeks. For each fuel sample, the aminoalcohol and then the biocide when present are added at the desired loadings to 130 mL of either diesel or biodiesel fuel with agitation for 5 min. Bushnell-Haas broth (24 mL) is added as the aqueous phase below the diesel fuel. One mL of the mixed inoculum is added. The samples are mixed weekly by turning the bottle upside down 5 times. The organism count listed for day 0 represents the initial organism populations detected in the water bottom after mixing the water bottom and the fuel.
(§3) Microbial survival is measured using the plate count method. Tryptic soy agar is used for Pseudomonas aeruginosa, and Sabouraud dextrose agar with 0.5 ug/ml gentamycin for Yarrowia tropicalis, and bacteriological grade agar 1.5%, with 0.01% potassium tellurite for Hormoconis resinae. Bacteria are incubated at 37° C. for 48 hours, and fungi at 25° C. for 5-7 days.

[2] = test system: Pseudomonas aeruginosa ATCC# 33988; assay: Microbial resistance of fuel, plate count
Procedure: as §1, §2, §3

[3] = test system: Yarrowia tropicalis ATCC# 48138; assay: Microbial resistance of fuel, plate count
Procedure: as §1, §2, §3

[4] = test system: mixed inoculum (Ps. aeruginosa, Y. tropicalis, H. resinae); assay: Microbial resistance of fuel, mixed inoculum (overall statements); settings: diesel fuel
Procedure: as §1, §2, §3

[5] = diesel, aminoalcohol 1500 ppm, Day 0
[6] = diesel, aminoalcohol 1500 ppm, Wk 1
[7] = diesel, aminoalcohol 1500 ppm, Wk 2
[8] = diesel, aminoalcohol 1500 ppm, Wk 3
[9] = diesel, aminoalcohol 1500 ppm, Wk 4
[10] = diesel, aminoalcohol 3000 ppm, Day 0
[11] = diesel, aminoalcohol 3000 ppm, Wk 1
[12] = diesel, aminoalcohol 3000 ppm, Wk 2
[13] = diesel, aminoalcohol 3000 ppm, Wk 3
[14] = diesel, aminoalcohol 3000 ppm, Wk 4
[15] = biodiesel, 3A40 1500 ppm, Week 1
[16] = biodiesel, 3A40 1500 ppm, Week 2
[17] = biodiesel, 3A40 1500 ppm, Week 3
[18] = biodiesel, 3A40 1500 ppm, Week 4
[19] = biodiesel, 3A40 3000 ppm, Week 1
[20] = biodiesel, 3A40 3000 ppm, Week 2
[21] = biodiesel, 3A40 3000 ppm, Week 3
[22] = biodiesel, 3A40 3000 ppm, Week 4

CC(C)(N)CO [AMP, 2-Amino-2-methyl-1-propanol, reference compound]
H. resinae count [1, 5]: 4.2E5 | H. resinae count [1, 6]: 3.0E5 | H. resinae count [1, 7]: 6.4E5 | H. resinae count [1, 8]: 7.4E5 | H. resinae count [1, 9]: 1.8E6 | H. resinae count [1, 10]: 4.2E5 | H. resinae count [1, 11]: 1.2E5 | H. resinae count [1, 12]: 4.5E5 | H. resinae count [1, 13]: 5.8E5 | H. resinae count [1, 14]: 3.3E6 | Ps. aeruginosa count [2, 5]: 1.4E6 | Ps. aeruginosa count [2, 6]: 8.7E5 | Ps. aeruginosa count [2, 7]: 2.3E6 | Ps. aeruginosa count [2, 8]: 4.4E6 | Ps. aeruginosa count [2, 9]: 1.2E7 | Ps. aeruginosa count [2, 10]: 1.4E6 | Ps. aeruginosa count [2, 11]: 2.2E6 | Ps. aeruginosa count [2, 12]: 4.0E6 | Ps. aeruginosa count [2, 13]: 6.0E6 | Ps. aeruginosa count [2, 14]: 4.2E7 | Y. tropicalis count [3, 5]: 3.3E5 | Y. tropicalis count [3, 6]: 1.3E5 | Y. tropicalis count [3, 7]: 7.2E5 | Y. tropicalis count [3, 8]: 1.3E6 | Y. tropicalis count [3, 9]: 7.0E6 | Y. tropicalis count [3, 10]: 3.3E5 | Y. tropicalis count [3, 11]: 9.0E4 | Y. tropicalis count [3, 12]: 2.3E5 | Y. tropicalis count [3, 13]: 5.2E5 | Y. tropicalis count [3, 14]: 4.3E6

CCCCC(O)C(N)CC (centres unmarked) [Example 3A4O, 3-amino-4-octanol]
H. resinae count [1, 15]: <1.0E2 | H. resinae count [1, 16]: <1.0E2 | H. resinae count [1, 17]: <1.0E2 | H. resinae count [1, 18]: <1.0E2 | H. resinae count [1, 19]: <1.0E2 | H. resinae count [1, 20]: <1.0E2 | H. resinae count [1, 21]: <1.0E2 | H. resinae count [1, 22]: <1.0E2 | H. resinae count [1, 5]: 4.2E5 | H. resinae count [1, 6]: 2.7E5 | H. resinae count [1, 7]: 3.8E5 | H. resinae count [1, 8]: 7.7E5 | H. resinae count [1, 9]: 4.4E6 | H. resinae count [1, 10]: 4.2E5 | H. resinae count [1, 11]: 3.5E5 | H. resinae count [1, 12]: 6.7E5 | H. resinae count [1, 13]: 8.2E5 | H. resinae count [1, 14]: 6.0E6 | Ps. aeruginosa count [2, 15]: <1.0E2 | Ps. aeruginosa count [2, 16]: <1.0E2 | Ps. aeruginosa count [2, 17]: <1.0E2 | Ps. aeruginosa count [2, 18]: <1.0E2 | Ps. aeruginosa count [2, 19]: <1.0E2 | Ps. aeruginosa count [2, 20]: <1.0E2 | Ps. aeruginosa count [2, 21]: <1.0E2 | Ps. aeruginosa count [2, 22]: <1.0E2 | synergy with biocide ([2]; diesel fuel, with BIT, against Ps. Aeruginosa (FIG. 3)): not significant | Ps. aeruginosa count [2, 5]: 1.4E6 | Ps. aeruginosa count [2, 6]: 1.7E6 | Ps. aeruginosa count [2, 7]: 4.2E6 | Ps. aeruginosa count [2, 8]: 7.3E6 | Ps. aeruginosa count [2, 9]: 4.8E7 | Ps. aeruginosa count [2, 10]: 1.4E6 | Ps. aeruginosa count [2, 11]: 8.7E5 | Ps. aeruginosa count [2, 12]: 2.0E6 | Ps. aeruginosa count [2, 13]: 5.7E6 | Ps. aeruginosa count [2, 14]: 2.3E7 | Y. tropicalis count [3, 15]: <1.0E2 | Y. tropicalis count [3, 16]: <1.0E2 | Y. tropicalis count [3, 17]: <1.0E2 | Y. tropicalis count [3, 18]: <1.0E2 | Y. tropicalis count [3, 19]: <1.0E2 | Y. tropicalis count [3, 20]: <1.0E2 | Y. tropicalis count [3, 21]: <1.0E2 | Y. tropicalis count [3, 22]: <1.0E2 | synergy with biocide ([3]; diesel fuel, with BIT, Y. tropicalis): evident | Y. tropicalis count [3, 5]: 3.3E5 | Y. tropicalis count [3, 6]: 1.1E5 | Y. tropicalis count [3, 7]: 8.0E5 | Y. tropicalis count [3, 8]: 2.2E6 | Y. tropicalis count [3, 9]: 8.3E6 | Y. tropicalis count [3, 10]: 3.3E5 | Y. tropicalis count [3, 11]: 2.0E5 | Y. tropicalis count [3, 12]: 6.3E5 | Y. tropicalis count [3, 13]: 3.0E6 | Y. tropicalis count [3, 14]: 1.2E7 | synergy with biocide ([4]; with FUELSAVER (FIG. 1)): particularly synergistic | synergy with biocide ([4]; with Kathon (CMIT/MIT) (FIG. 2)): more evident early on in the testing and then appears to taper off with time | synergy with biocide ([4]; with the three biocides evaluated): Synergy, however, is observed
